Values of other authors, collected in article PMC3527451, “A Pilot Randomized, Placebo Controlled, Double Blind Phase I Trial of the Novel SIRT1 Activator SRT2104 in Elderly Volunteers” (PLoS ONE, 2012).

Tested on: DIO mice and ob/ob mice
Settings: e.g. DIO and Lep ob/ob obese mice; cited from earlier work

Oc1ccc(/C=C/c2cc(O)cc(O)c2)cc1 [resveratrol, reference compound]
cholesterol, LDL and triglycerides in preclinical models of dyslipidemia, diabetes and obesity: lower cholesterol, LDL and triglycerides
